# Test results from patent US20100234315A1, “COMPOSITIONS AND METHODS FOR TREATING PSYCHIATRIC AND […]” (priority 2009, published 2010).
# Assays:
# [1] = test system: spontaneously hypertensive rats (SHR); assay: Open-field locomotor activity (beam breaks, rearing) in SHR rats; assay type: in vivo, rat
# Description: (§1) The effects of Protoveratrine B (PVB) on locomotor activity were determined using an open-field apparatus (High Density Cage Rack System; Kent Scientific Corporation). Adult spontaneously hypertensive rats (SHR) and adult Wistar Kyoto rats (WKY) were purchased from Charles River Laboratories. […] Sessions lasted 30-minutes and were separated by at least one day to diminish the likelihood of habituation to the apparatus. Three doses of PVB were investigated based upon the blood-pressure phase of the study: 0.01, 0.02 & 0.04 mg/kg.
# (§2) The number of beam breaks was averaged across subjects and into 30-s bins. The upper panel represents the WKY control rats (N=8); the bottom panel represents the SHR rats (N=8). The different plots represent the baseline and different doses of PVB. Several details can be gleaned from the data. […] Second, activity levels in the SHRs appear to drop off precipitously throughout the session and eventually converge with the activity levels seen in the WKYs.
# (§3) To better comprehend the effects of dose on locomotor activity, a dose-response graph was constructed for each rat strain. To construct these graphs, the number of beam breaks that occurred in the first thirty bins (first 15 min) of all rats within a strain was averaged and plotted as a function of dose. The resulting graphs, shown in FIG. 2, represent the effects of PVB on activity within the first 15 minutes post injection.
# (§4) Another measure of activity level is rearing (measured by beam breaks of an infrared plane approximately 5″ above the floor of the chamber). Rearing data were analyzed in the same way as the horizontal beam breaks. The results are illustrated in FIG. 3. […] Unlike the horizontal activity, rearing activity in SHRs was decreased by the 0.01 mg/kg dose.
# Wistar Kyoto rats (WKY) = assay: Open-field locomotor activity (beam breaks, rearing) in WKY rats; assay type: in vivo, rat
# Description: as §1, §2, §3, §4
structure (smiles),measurement,setting,value
"CC[C@@H](C)C(=O)O[C@H]1[C@H](O)[C@H]2[C@@H](CN3C[C@@H](C)CC[C@H]3[C@@]2(C)O)[C@@H]2C[C@]34O[C@]5(O)[C@@H](OC(=O)[C@](C)(O)[C@@H](C)O)CC[C@@]3(C)[C@@H]5[C@@H](OC(C)=O)[C@@H](OC(C)=O)[C@H]4[C@@]21O (stereo in doubt) [PVB, Protoveratrine B]",activity level (beam breaks) vs baseline,"[1]; 0.01 mg/kg i.p., FIG. 1",did not affect activity
same,rearing activity at lowest dose,"[1]; 0.01 mg/kg i.p., FIG. 3",decreased
same,"activity level, largest dose compared with lowest dose","[1]; 0.04 mg/kg vs 0.01 mg/kg i.p., FIG. 1",greater decrease in activity
same,"mean rearing, first 30 bins","[1]; 0.01-0.04 mg/kg i.p., FIG. 3",reduced rearing
same,"mean number of beam breaks, first thirty bins (first 15 min)","[1]; dose-response 0.01-0.04 mg/kg i.p., FIG. 2",reduced the mean number of beam breaks
same,average activity level (number of beam breaks) as a function of time,"[1]; i.p., 0.01-0.04 mg/kg, first half of 30-min session, FIG. 1",decreased activity levels
same,"mean number of beam breaks, first 15 min, lowest dose","[1]; lowest dose (0.01 mg/kg) i.p., FIG. 2",no activity-decreasing effect
same,relative potency between strains,"Wistar Kyoto rats (WKY); WKY vs SHR, from dose-response functions, FIG. 2",slightly more potent in WKY than in SHR rats
same,"mean number of beam breaks, first 15 min, largest dose, WKY compared with SHR","Wistar Kyoto rats (WKY); WKY vs SHR, largest dose (0.04 mg/kg) i.p., FIG. 2",greater reduction in activity levels
same,activity level (beam breaks) vs baseline,"Wistar Kyoto rats (WKY); WKY, 0.01 mg/kg i.p., FIG. 1",reduced activity from baseline
same,"activity level, largest dose compared with lowest dose","Wistar Kyoto rats (WKY); WKY, 0.04 mg/kg vs 0.01 mg/kg i.p., FIG. 1",greater decrease in activity
same,"mean rearing, first 30 bins","Wistar Kyoto rats (WKY); WKY, 0.01-0.04 mg/kg i.p., FIG. 3",reduced rearing
same,"mean number of beam breaks, first thirty bins (first 15 min)","Wistar Kyoto rats (WKY); WKY, dose-response 0.01-0.04 mg/kg i.p., FIG. 2",reduced the mean number of beam breaks
same,average activity level (number of beam breaks) as a function of time,"Wistar Kyoto rats (WKY); WKY, i.p., 0.01-0.04 mg/kg, first half of 30-min session, FIG. 1",decreased activity levels
same,"mean number of beam breaks, first 15 min, lowest dose","Wistar Kyoto rats (WKY); WKY, lowest dose (0.01 mg/kg) i.p., FIG. 2",affected by the lowest dose
